Experiment [1] has as its target T1, 5-HT2 receptors in A7r5 rat vascular smooth muscle cells (Rattus norvegicus, UniProt P14842).
T1 construct: endogenous in cells; host or cells: A7r5 rat vascular smooth muscle cells
In words: 5-HT2 functional assay: [Ca2+]i mobilization (FLIPR). Type of experiment: cell-based. As to conditions: for Emax: read-out: Efficacy (Emax, %). How it is done:
5-HT2 Functional Assay: [Ca^2+]i Mobilization
The receptor-mediated mobilization on intracellular calcium ([Ca^2+]i) was studied using the Fluorescence Imaging Plate Reader (FLIPR) instrument. Rat vascular smooth muscle cells, A7r5, were grown in a normal media of DMEM/10% FBS and 10 μg/mL gentamycin. Confluent cell monolayers were trypsinized, pelleted, and re-suspended in normal media. Cells were seeded in a 50 μL volume at a density of 20,000 cells/well in a black wall, 96-well tissue culture plate and grown for 2 days.
On the day of the experiment, one vial of FLIPR Calcium Assay Kit dye was re-suspended in 50 mL of a FLIPR buffer consisting of Hank's Balanced Salt Solution (HBSS), 20 mM HEPES, and 2.5 mM probenecid, pH 7.4. Cells were loaded with the calcium-sensitive dye by addition of an equal volume (50 μL) to each well of the 96-well plate and incubated with dye for 1 h at 23° C.
Compounds were diluted 1:50 in 20% DMSO/20% ethanol. For “hit” screening, compounds were further diluted 1:10 in FLIPR buffer and tested at a final concentration of 10 μM.
The compound plate and cell plate were placed in the FLIPR instrument. At the beginning of an experimental run, a signal test was performed to check the basal fluorescence signal from the dye-loaded cells and the uniformity of the signal across the plate. The basal fluorescence was adjusted between 8000-12000 counts by modifying the exposure time, the camera F-stop, or the laser power. Instrument settings for a typical assay were the following: laser power 0.3-0.6 W, camera F-stop F/2, and exposure time 0.4 sec. An aliquot (25 μL) of the test compound was added to the existing 100 μL dye-loaded cells at a dispensing speed of 50 μL/sec. Fluorescence data were collected in real-time at 1.0 sec intervals for the first 60 secs and at 6.0 sec intervals for an additional 120 secs.

The target in another experiment is brain 5-HT2 receptors (Rattus norvegicus, UniProt P14842). In words: 5-HT2 receptor binding assay ([125I]DOI competition). The note with it: competition for [125I]DOI binding, rat or human cerebral cortex homogenates. Here is the method:
5-HT2 Receptor Binding Assay
The assay mixture is incubated for 1 hour at 23° C. in polypropylene tubes and the assays terminated by rapid vacuum filtration over Whatman GF/B glass fiber filters previously soaked in 0.3% polyethyleneimine using ice-cold buffer. Test compounds (at different concentrations) are substituted for methiothepin. Filter-bound radioactivity is determined by scintillation spectrometry on a beta counter. The data are analyzed using a non-linear, iterative curve-fitting computer program [Trends Pharmacol. Sci., 16, 413 (1995)] to determine the compound affinity parameter. The concentration of the compound needed to inhibit the [^125I]DOI binding by 50% of the maximum is termed the IC50 or Ki value.

Setting [2] is: A7r5 cells, FLIPR, percentage of maximum 5-HT-induced response.
[3] abbreviates: A7r5 cells, FLIPR, read-out: EC50, nM (5-HT2 functional, [Ca2+]i mobilization).

Molecules are shown by their SMILES. Where a name gives a salt, the structure may show the parent alone. Read-outs that look alike come from different tables or passages of the source.

A word on the EC50: it is the midpoint of the concentration-response curve. What is called IC50 is the point on the concentration scale where inhibition reaches its midpoint. What is called Emax is the size of the effect at its maximum, as opposed to the concentration needed.

T1 sequence (P14842 whole entry): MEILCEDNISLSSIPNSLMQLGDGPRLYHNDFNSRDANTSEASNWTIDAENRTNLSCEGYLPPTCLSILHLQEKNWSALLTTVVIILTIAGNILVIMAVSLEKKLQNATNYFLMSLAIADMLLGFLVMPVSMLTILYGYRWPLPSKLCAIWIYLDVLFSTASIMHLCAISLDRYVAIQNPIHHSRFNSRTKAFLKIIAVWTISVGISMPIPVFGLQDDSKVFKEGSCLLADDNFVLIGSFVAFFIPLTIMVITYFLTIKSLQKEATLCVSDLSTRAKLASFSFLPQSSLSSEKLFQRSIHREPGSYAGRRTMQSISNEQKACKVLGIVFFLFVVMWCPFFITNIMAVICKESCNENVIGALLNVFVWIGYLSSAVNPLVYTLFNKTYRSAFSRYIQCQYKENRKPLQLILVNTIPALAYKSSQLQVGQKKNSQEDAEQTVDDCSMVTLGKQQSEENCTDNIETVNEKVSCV
Sequence of brain 5-HT2 receptors (P14842 whole entry): as above

`COc1cc(CC(C)N)c(OC)cc1I` (stereo not shown) [DOI, reference compound]: in experiment [1] (setting [2]), the “Efficacy (Emax, %)” value came out at 31%. Moreover, in experiment [1] (setting [3]), the concentration for a half-maximal effect (EC50) came out at 30.2 nM. The molecule further displayed an IC50 at brain 5-HT2 receptors of 0.33 nM.
For the molecule `CC(N)Cn1ncc2c1-c1cc(O)ccc1CC2` (stereo not shown) [Example 2, 1-(2-Aminopropyl)-4,5-dihydro-1H-benzo[g]indazol-8-ol Dihydrochloride], in experiment [1] (setting [2]), the maximal response (Emax) stood at 46%. The EC50 in experiment [1] (setting [3]) is 103 nM.
As to `CC(N)Cn1ncc2ccc3cc(O)ccc3c21` (stereo not shown) [Example 4, 1-(2-Aminopropyl)-2H-benzo[g]indazol-7-ol], a half-maximal response in experiment [1] (EC50) required 211 nM. Also, the maximal response (Emax) in experiment [1] (setting [2]) was 79%.
In the case of `CC(N)Cn1ncc2c1-c1ccc(O)cc1C2` (stereo not shown) [Example 5, 1-(2-Aminopropyl)-1,4-dihydro-indeno[1,2-c]pyrazol-6-ol], the Emax in experiment [1] (setting [2]) turned out to be 64%. Moreover, the concentration giving a half-maximal response (EC50) in experiment [1] (setting [3]) came out at 328 nM.
On to `NCCc1c[nH]c2ccc(O)cc12` [Example 5-HT, 5-Hydroxytryptamine, reference compound], for which the maximum response (Emax) in experiment [1] (setting [2]) came out at 107%.
